Values quoted from earlier work, collected in US9173845B2, “Controlled release pharmaceutical compositions of milnacipran” (priority 2009, dated 2015).

Settings: immediate release Milnacipran, background

## CCN(CC)C(=O)C1(c2ccccc2)CC1CN (stereo not drawn) [Milnacipran, cis-2-amino methyl-N,N-diethyl-1-phenyl cyclopropane carboxamide]
  half-life: ~8 h
